The structures appear in SMILES notation.

This passage reports Ki results from patent publication US20070037788A1, “Tricyclic steroid hormone nuclear receptor modulators” (Eli Lilly and Company, priority 2003, published 2007).

The assay addresses T1, human MR (Homo sapiens, UniProt P08235).
T1 construct: The full length human MR gene is cloned from a human kidney or human brain cDNA library; made in house; host or cells: SF9 insect cells (baculovirus)
T1 sequence (P08235 1-984): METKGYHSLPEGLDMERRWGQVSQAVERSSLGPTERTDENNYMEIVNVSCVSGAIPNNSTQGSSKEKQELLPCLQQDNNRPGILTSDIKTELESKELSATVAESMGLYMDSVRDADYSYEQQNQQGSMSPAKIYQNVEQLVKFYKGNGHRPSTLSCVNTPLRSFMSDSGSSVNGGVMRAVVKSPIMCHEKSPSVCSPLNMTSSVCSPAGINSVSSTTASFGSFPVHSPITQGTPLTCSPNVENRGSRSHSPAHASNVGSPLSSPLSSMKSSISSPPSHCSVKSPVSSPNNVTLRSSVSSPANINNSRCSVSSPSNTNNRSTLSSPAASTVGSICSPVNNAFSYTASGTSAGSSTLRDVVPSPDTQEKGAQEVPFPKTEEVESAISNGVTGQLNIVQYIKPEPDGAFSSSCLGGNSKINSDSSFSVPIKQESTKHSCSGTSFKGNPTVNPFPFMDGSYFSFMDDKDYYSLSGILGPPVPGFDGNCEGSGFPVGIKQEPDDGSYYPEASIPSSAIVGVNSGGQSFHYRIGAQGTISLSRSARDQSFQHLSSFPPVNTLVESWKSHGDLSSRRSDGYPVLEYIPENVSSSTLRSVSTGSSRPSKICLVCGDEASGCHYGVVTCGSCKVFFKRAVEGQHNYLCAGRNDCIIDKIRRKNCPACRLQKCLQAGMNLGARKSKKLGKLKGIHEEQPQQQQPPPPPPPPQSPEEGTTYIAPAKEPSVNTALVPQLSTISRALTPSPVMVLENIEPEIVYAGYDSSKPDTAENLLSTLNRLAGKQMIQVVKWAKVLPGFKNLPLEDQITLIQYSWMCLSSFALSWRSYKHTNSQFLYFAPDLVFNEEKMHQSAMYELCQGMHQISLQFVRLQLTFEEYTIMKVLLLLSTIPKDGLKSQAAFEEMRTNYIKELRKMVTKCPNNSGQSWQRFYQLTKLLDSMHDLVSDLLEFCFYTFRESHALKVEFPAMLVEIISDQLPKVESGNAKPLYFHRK
The assay can be described thus: Mineralocorticoid Receptor Binding Assay (Method 1). Conditions: [3H]-aldosterone. On the procedure: The full length human MR gene is cloned from a human kidney or human brain cDNA library. Briefly, using synthetic oligonucleotide primers (Eli Lilly and Company, Indianapolis) directed to nucleotides 20-54 and 3700-3666 of the human MR, polymerase chain reaction (PCR) is performed under standard conditions using a human cDNA library. The PCR reaction is performed in a final volume of 50 μl containing about 1 μl of a 50× stock solution of polymerase; about 1 μl of a 50× stock solution of DNTP; about 5 μl of an appropriate PCR buffer; about 1 μl of each primer; about 5 μl of a H. kidney or H. brain cDNA library; and about 36 μl of water. The reaction is allowed to denature for about 30 seconds at 95 degrees Celsius, anneal for about 30 seconds at 55 degrees Celsius, and extend for about 5 minutes at 72 degrees Celsius, the sequence being repeated for a total of about 35 cycles. The desired PCR product (3.68 Kb) is confirmed by gel electrophoresis and subsequently cut from the gel and stored at about −20 degrees Celsius until extraction. To extract the cDNA product from the agarose gel, the QIAEX II Gel Extraction protocol (QIAGEN, Inc.) is employed according to the manufacturer's instructions. Following extraction, the MR cDNA is cloned into an appropriate cloning vector (Zero Blunt TOPO PCR Cloning Kit (Invitrogen, Inc.) and a pAcHLT-baculovirus transfer vector (B.D./Pharminogen), then expressed in SF9 insect cells, essentially according to manufacturer's instructions. Sf9 cells are grown at a scale where gram quantity cell pellets are obtained for subsequent use in the MR binding assay. Harvested cell pellets are lysed by repeated freeze-thaw cycles (about 4) in a suitable lysis buffer then centrifuged at about 1×10^3 G (with the supernatant being saved for future assays).
MR binding assays are performed in a final total volume of about 250 μl containing about 20-25 μg of protein and 0.5 nM of [^3H]-aldosterone plus varying concentrations of test compound or vehicle. The assay binding buffer consists of 30 mM sodium molybdate, 30 mM of TRIS-HCl, 5 mM sodium phosphate, 5 mM sodium pyrophosphate, and about 10% glycerol, pH=7.5.
Briefly, assays are prepared at RT in 96-well Falcon 3072 plates, each well containing 210 μl of binding buffer, 10 μl of [^3H]-aldosterone, 10 μl of test compound/vehicle, and 20 μl of the resuspended receptor protein extract. Incubations are carried out at 4 degrees Celsius with shaking for about 16 hours. 200 μl aliquots of each incubation are filtered onto Millipore HA 0.45 micron 96-well filter plates, pre-moistened with cold 30 mM TRIS-HCl. The filter plates are suctioned dry with vacuum and immediately washed 3× with cold 30 mM TRIS-HCl. The plates are then punched out and the amount of receptor-ligand complex is determined by liquid scintillation counting using 4 ml of Ready Protein Plus™ liquid scintillation cocktail.
Usually Ki stands for a dissociation constant, usually derived from enzyme kinetics or from competition with a known ligand. Read a low Ki as a stronger hold on the target. In turn, `C[C@@H]1CN(CCn2c(=O)[nH]c3cc(/C=C4/c5ccc(F)cc5OCc5c(F)cccc54)ccc32)C[C@H](C)O1` [Example 41] had a Ki below 0.5 µM.

`O=c1[nH]c2cc(/C=C3/c4ccc(F)cc4OCc4c(F)cccc43)ccc2n1CCCN1CCOCC1` [Example 42] yielded a Ki below 0.5 µM.

Turning to `O=c1[nH]c2cc(/C=C3/c4ccc(F)cc4OCc4c(F)cccc43)ccc2n1CCN1CCNCC1` [Example 43], the Ki is below 0.5 µM.

`CCN1CC[C@H](n2c(=O)[nH]c3cc(/C=C4/c5ccc(F)cc5OCc5c(F)cccc54)ccc32)C1` [Example 44] came in with a Ki below 0.5 µM.

`CN1CC[C@H](n2c(=O)[nH]c3cc(/C=C4/c5ccc(F)cc5OCc5c(F)cccc54)ccc32)C1` [Example 45] returned a Ki below 0.5 µM.

`CCN1CC[C@@H](n2c(=O)[nH]c3cc(/C=C4/c5ccc(F)cc5OCc5c(F)cccc54)ccc32)C1` [Example 46]: the Ki was below 0.5 µM.
